# Test results taken from patent publication US8652463B1, “Dietary supplement to reduce the occurrence of migraines and treat their symptoms” (priority 2011, dated 2014).
# Legend:
# migraine headaches = conditions: for effect of preventive on migraine frequency: Patient two, before the regimen, ELAVIL 75 mg orally at bedtime, prednisone brief rounds
# acute migraine = assay: Patient case reports: acute (rescue/abortive) migraine therapy; type: in vivo, human; conditions: for success for acute migraine: historically, before the regimen
# [1] = Patient three, history before the regimen
compound,measurement,setting,value
CC(C)C[C@H](CN)CC(=O)O [LYRICA],side effects of migraine preventive,"migraine headaches; human, in vivo",fluid retention and confusion
CNS(=O)(=O)Cc1ccc2[nH]cc(CCN(C)C)c2c1 [IMITREX],course of response for acute migraine rescue,acute migraine; [1],"worked well initially, but became ineffective"
same,response for acute migraine rescue,acute migraine; [1],poor response
same,response of migraines to acute therapy,"acute migraine; Patient two, 100 mg orally, prior to breast cancer diagnosis, two to three migraines per month",responded well
same,response to rescue medication,"acute migraine; Patient two, while using the regimen and ELAVIL",more responsive to a single dose
O=C(c1ccccc1)c1ccc2n1CCC2C(=O)O (stereo not shown) [TORADOL],response for acute migraine rescue,acute migraine; [1],poor response
same,response to abortive therapy,"acute migraine; human, in vivo, po",good response
CN(C)CCc1c[nH]c2ccc(Cn3cncn3)cc12 [MAXALT],response for acute migraine rescue,acute migraine; [1],poor response
CN[C@@H]1CCc2[nH]c3ccc(C(N)=O)cc3c2C1 [FROVA],success for acute migraine,acute migraine; Patient one,moderate success
same,success as rescue drug,"acute migraine; Patient one, while using the regimen",with success
CC1(C)O[C@@H]2[C@@H](CO[C@@]3(COS(N)(=O)=O)OC(C)(C)O[C@@H]23)O1 [TOPAMAX],migraine reduction and severity with preventive,migraine headaches; Patient one,poor migraine reduction and severity
same,effect of preventive on migraine frequency,migraine headaches,did not reduce migraine frequency
same,side effects of migraine prevention,"migraine headaches; human, in vivo",cognitive dysfunction
same,side effects of migraine preventive,"migraine headaches; human, in vivo",alopecia
same,tolerance of migraine preventive,"migraine headaches; human, in vivo",poor tolerance
Clc1ccc2nsnc2c1NC1=NCCN1 [ZANAFLEX],side effects of migraine prevention,"migraine headaches; human, in vivo",cognitive dysfunction
C[C@]12C=CC(=O)C=C1CC[C@@H]1[C@@H]2C(=O)C[C@@]2(C)[C@H]1CC[C@]2(O)C(=O)CO [prednisone],effect of preventive on migraine frequency,migraine headaches,short-lived migraine reduction
CN(C)CCC=C1c2ccccc2CCc2ccccc21 [ELAVIL],effect of preventive on migraine frequency,migraine headaches,did not reduce migraine frequency
same,side effects of migraine preventive,"migraine headaches; human, in vivo",weight gain
CC(CN1c2ccccc2Sc2ccccc21)N(C)C (stereo not shown) [phenegran],success for acute migraine,acute migraine; Patient one,moderate success
CC(C)(C#N)c1cc(Cn2cncn2)cc(C(C)(C)C#N)c1 [ARMIDEX],effect on migraines (adverse),"migraine headaches; human, in vivo","more frequent, disabling, and less responsive"
botulinum toxin [BOTOX],migraine remission / frequency,"migraine headaches; human, in vivo",complete remission of migraines to once per month
